pIC50: −log10 of the molar value. Values joined by “and” are separate entries in the source; they are usually repeats but may differ in a detail not shown here. Equal entries are not always repeated.
System: NCI-H196 complex spheroid viability
Assay: Anticancer human tumor NCI-H196 cell line growth inhibition [LSD1];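 further: spheroids exposed to agents for 7 days before readout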;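 on viability, T/C: 100% = DMSO vehicle control viability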
Conditions: for viability, T/C: stronger effect = lower value
In short: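 Multicellular complex spheroids of tumor cells with human endothelial cells (HUVEC) and mesenchymal stem cells; the LSD1 inhibitor iadademstat was combined with standard-of-care or investigational agents. Top concentration at or near clinical Cmax, half-log dilutions; final DMSO ≤0.25%.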

[1] = curve of first compound, second compound 0.1 µM
[2] = curve of first compound, second compound 0.316 µM
[3] = curve of first compound, second compound 1 µM
[4] = curve of first compound, second compound 3.16 µM
[5] = curve of first compound, second compound 10 µM
[6] = second compound 0.1 µM, first compound 0.000949 µM
[7] = second compound 0.1 µM, first compound 0.003 µM
[8] = second compound 0.1 µM, first compound 0.00949 µM
[9] = second compound 0.1 µM, first compound 0.03 µM
[10] = second compound 0.1 µM, first compound 0.0949 µM
[11] = second compound 0.1 µM, first compound 0.3 µM
[12] = second compound 0.316 µM, first compound 0.000949 µM
[13] = second compound 0.316 µM, first compound 0.003 µM
[14] = second compound 0.316 µM, first compound 0.00949 µM
[15] = second compound 0.316 µM, first compound 0.03 µM
[16] = second compound 0.316 µM, first compound 0.0949 µM
[17] = second compound 0.316 µM, first compound 0.3 µM
[18] = second compound 1 µM, first compound 0.000949 µM
[19] = second compound 1 µM, first compound 0.003 µM
[20] = second compound 1 µM, first compound 0.00949 µM
[21] = second compound 1 µM, first compound 0.03 µM
[22] = second compound 1 µM, first compound 0.0949 µM
[23] = second compound 1 µM, first compound 0.3 µM
[24] = second compound 3.16 µM, first compound 0.000949 µM
[25] = second compound 3.16 µM, first compound 0.003 µM
[26] = second compound 3.16 µM, first compound 0.00949 µM
[27] = second compound 3.16 µM, first compound 0.03 µM
[28] = second compound 3.16 µM, first compound 0.0949 µM
[29] = second compound 3.16 µM, first compound 0.3 µM
[30] = second compound 10 µM, first compound 0.000949 µM
[31] = second compound 10 µM, first compound 0.003 µM
[32] = second compound 10 µM, first compound 0.00949 µM
[33] = second compound 10 µM, first compound 0.03 µM
[34] = second compound 10 µM, first compound 0.0949 µM
[35] = second compound 10 µM, first compound 0.3 µM

**Q.** `CC1COCCN1c1cc(C2(S(C)(=N)=O)CC2)nc(-c2ccnc3[nH]ccc23)n1` (configuration not stated) + NC1CCC(NC2CC2c2ccccc2)CC1 was tested. Which pIC50 [1] did it give?
**A.** < 5.00

**Q.** And the pIC50 [2]?
**A.** < 5.00

**Q.** What about the pIC50 [3] of the same molecule?
**A.** < 5.00

**Q.** What about the pIC50 [4] of the same molecule?
**A.** < 5.00

**Q.** And the pIC50 [5]?
**A.** < 5.00

**Q.** What about the viability, T/C (second compound 0.1 µM, first compound 0.0316 µM) of the same molecule?
**A.** 95.7%

**Q.** What about the viability, T/C (second compound 0.1 µM, first compound 0.1 µM) of the same molecule?
**A.** 100%

**Q.** What about the viability, T/C (second compound 0.1 µM, first compound 0.316 µM) of the same molecule?
**A.** 99%

**Q.** And the viability, T/C (second compound 0.1 µM, first compound 1 µM)?
**A.** 87.5%

**Q.** And the viability, T/C (second compound 0.1 µM, first compound 3.16 µM)?
**A.** 89%

**Q.** What about the viability, T/C (second compound 0.1 µM, first compound 10 µM) of the same molecule?
**A.** 67.4%

**Q.** What about the viability, T/C (second compound 0.316 µM, first compound 0.0316 µM) of the same molecule?
**A.** 101%

**Q.** What about the viability, T/C (second compound 0.316 µM, first compound 0.1 µM) of the same molecule?
**A.** 99.5%

**Q.** What about the viability, T/C (second compound 0.316 µM, first compound 0.316 µM) of the same molecule?
**A.** 110%

**Q.** And the viability, T/C (second compound 0.316 µM, first compound 1 µM)?
**A.** 89.5%

**Q.** What about the viability, T/C (second compound 0.316 µM, first compound 3.16 µM) of the same molecule?
**A.** 88.3%

**Q.** What about the viability, T/C (second compound 0.316 µM, first compound 10 µM) of the same molecule?
**A.** 70.8%

**Q.** What about the viability, T/C (second compound 1 µM, first compound 0.0316 µM) of the same molecule?
**A.** 101%

**Q.** What about the viability, T/C (second compound 1 µM, first compound 0.1 µM) of the same molecule?
**A.** 96.4%

**Q.** What about the viability, T/C (second compound 1 µM, first compound 0.316 µM) of the same molecule?
**A.** 95.5%

**Q.** What about the viability, T/C (second compound 1 µM, first compound 1 µM) of the same molecule?
**A.** 85.8%

**Q.** What about the viability, T/C (second compound 1 µM, first compound 3.16 µM) of the same molecule?
**A.** 79.5%

**Q.** And the viability, T/C (second compound 1 µM, first compound 10 µM)?
**A.** 72.2%

**Q.** What about the viability, T/C (second compound 3.16 µM, first compound 0.0316 µM) of the same molecule?
**A.** 97.4%

**Q.** And the viability, T/C (second compound 3.16 µM, first compound 0.1 µM)?
**A.** 100%

**Q.** And the viability, T/C (second compound 3.16 µM, first compound 0.316 µM)?
**A.** 93.7%

**Q.** What about the viability, T/C (second compound 3.16 µM, first compound 1 µM) of the same molecule?
**A.** 85.5%

**Q.** What about the viability, T/C (second compound 3.16 µM, first compound 3.16 µM) of the same molecule?
**A.** 79.5%

**Q.** And the viability, T/C (second compound 3.16 µM, first compound 10 µM)?
**A.** 70.2%

**Q.** And the viability, T/C (second compound 10 µM, first compound 0.0316 µM)?
**A.** 96.9%

**Q.** What about the viability, T/C (second compound 10 µM, first compound 0.1 µM) of the same molecule?
**A.** 108%

**Q.** And the viability, T/C (second compound 10 µM, first compound 0.316 µM)?
**A.** 100%

**Q.** What about the viability, T/C (second compound 10 µM, first compound 1 µM) of the same molecule?
**A.** 98%

**Q.** And the viability, T/C (second compound 10 µM, first compound 3.16 µM)?
**A.** 77.3%

**Q.** What about the viability, T/C (second compound 10 µM, first compound 10 µM) of the same molecule?
**A.** 68.2%

**Q.** How did the pIC50 [1] turn out when `Nc1ncn(C2CC(O)C(CO)S2)c(=O)n1` (configuration not stated) + NC1CCC(NC2CC2c2ccccc2)CC1 was run?
**A.** < 6.52

**Q.** And the pIC50 [2]?
**A.** < 6.52

**Q.** What about the pIC50 [3] of the same molecule?
**A.** < 6.52

**Q.** And the pIC50 [4]?
**A.** < 6.52

**Q.** And the pIC50 [5]?
**A.** < 6.52

**Q.** And the viability, T/C [6]?
**A.** 112%

**Q.** What about the viability, T/C [7] of the same molecule?
**A.** 104%

**Q.** And the viability, T/C [8]?
**A.** 121%

**Q.** What about the viability, T/C [9] of the same molecule?
**A.** 118%

**Q.** What about the viability, T/C [10] of the same molecule?
**A.** 122%

**Q.** And the viability, T/C [11]?
**A.** 118%

**Q.** And the viability, T/C [12]?
**A.** 103%

**Q.** And the viability, T/C [13]?
**A.** 102%

**Q.** What about the viability, T/C [14] of the same molecule?
**A.** 108%

**Q.** What about the viability, T/C [15] of the same molecule?
**A.** 114%

**Q.** And the viability, T/C [16]?
**A.** 112%

**Q.** And the viability, T/C [17]?
**A.** 127%

**Q.** And the viability, T/C [18]?
**A.** 93.7%

**Q.** And the viability, T/C [19]?
**A.** 105%

**Q.** What about the viability, T/C [20] of the same molecule?
**A.** 113%

**Q.** And the viability, T/C [21]?
**A.** 109%

**Q.** And the viability, T/C [22]?
**A.** 109%

**Q.** What about the viability, T/C [23] of the same molecule?
**A.** 110%

**Q.** What about the viability, T/C [24] of the same molecule?
**A.** 96.4%

**Q.** What about the viability, T/C [25] of the same molecule?
**A.** 106%

**Q.** What about the viability, T/C [26] of the same molecule?
**A.** 105%

**Q.** And the viability, T/C [27]?
**A.** 124%

**Q.** And the viability, T/C [28]?
**A.** 107%

**Q.** And the viability, T/C [29]?
**A.** 108%

**Q.** And the viability, T/C [30]?
**A.** 108%

**Q.** What about the viability, T/C [31] of the same molecule?
**A.** 105%

**Q.** And the viability, T/C [32]?
**A.** 113%

**Q.** What about the viability, T/C [33] of the same molecule?
**A.** 118%

**Q.** And the viability, T/C [34]?
**A.** 111%

**Q.** And the viability, T/C [35]?
**A.** 106%

**Q.** `CCN(c1cc(-c2ccc(CN3CCOCC3)cc2)cc(C(=O)NCc2c(C)cc(C)[nH]c2=O)c1C)C1CCOCC1` was tested. Which viability, T/C (compound 0.00949 µM) did it give?
**A.** 95.5% and 97.5%

**Q.** What about the viability, T/C (compound 0.03 µM) of the same molecule?
**A.** 103% and 95.3%

**Q.** And the viability, T/C (compound 0.0949 µM)?
**A.** 92.9% and 110%

**Q.** And the viability, T/C (compound 0.3 µM)?
**A.** 93.9% and 107%

**Q.** What about the viability, T/C (compound 0.949 µM) of the same molecule?
**A.** 101% and 113%

**Q.** What about the viability, T/C (compound 3 µM) of the same molecule?
**A.** 108% and 100%

**Q.** What about the pIC50 (curve of compound) of the same molecule?
**A.** < 5.52

**Q.** With `Nc1ccn(C2OC(CO)C(O)C2(F)F)c(=O)n1` (configuration not stated) + NC1CC1c1ccc(-c2cccc(O)c2)cc1 as the molecule, how does the pIC50 [1] read?
**A.** < 6.52

**Q.** What about the pIC50 [2] of the same molecule?
**A.** < 6.52

**Q.** And the pIC50 [3]?
**A.** < 6.52

**Q.** What about the pIC50 [4] of the same molecule?
**A.** < 6.52

**Q.** What about the pIC50 [5] of the same molecule?
**A.** < 6.52

**Q.** And the viability, T/C [6]?
**A.** 119%

**Q.** And the viability, T/C [7]?
**A.** 105%

**Q.** What about the viability, T/C [8] of the same molecule?
**A.** 97.4%

**Q.** What about the viability, T/C [9] of the same molecule?
**A.** 65.2%

**Q.** What about the viability, T/C [10] of the same molecule?
**A.** 68.9%

**Q.** And the viability, T/C [11]?
**A.** 62.6%

**Q.** What about the viability, T/C [12] of the same molecule?
**A.** 106%

**Q.** What about the viability, T/C [13] of the same molecule?
**A.** 107%

**Q.** What about the viability, T/C [14] of the same molecule?
**A.** 79.7%

**Q.** And the viability, T/C [15]?
**A.** 66.8%

**Q.** What about the viability, T/C [16] of the same molecule?
**A.** 67.3%

**Q.** What about the viability, T/C [17] of the same molecule?
**A.** 67.7%

**Q.** What about the viability, T/C [18] of the same molecule?
**A.** 108%

**Q.** And the viability, T/C [19]?
**A.** 108%

**Q.** What about the viability, T/C [20] of the same molecule?
**A.** 75.6%

**Q.** And the viability, T/C [21]?
**A.** 68.7%

**Q.** And the viability, T/C [22]?
**A.** 61.6%

**Q.** What about the viability, T/C [23] of the same molecule?
**A.** 71.2%

**Q.** And the viability, T/C [24]?
**A.** 117%

**Q.** And the viability, T/C [25]?
**A.** 104%

**Q.** What about the viability, T/C [26] of the same molecule?
**A.** 96.4%

**Q.** What about the viability, T/C [27] of the same molecule?
**A.** 76.2%

**Q.** What about the viability, T/C [28] of the same molecule?
**A.** 67.2%

**Q.** What about the viability, T/C [29] of the same molecule?
**A.** 72%

**Q.** What about the viability, T/C [30] of the same molecule?
**A.** 111%

**Q.** And the viability, T/C [31]?
**A.** 98.2%

**Q.** What about the viability, T/C [32] of the same molecule?
**A.** 91.3%

**Q.** What about the viability, T/C [33] of the same molecule?
**A.** 71.9%

**Q.** And the viability, T/C [34]?
**A.** 72.5%

**Q.** What about the viability, T/C [35] of the same molecule?
**A.** 69.3%
